≈ marks a conversion by molar mass, not a printed value.
What was measured:
[1] = tested on: enterococci; assay: Checkerboard assay, overall synergy statements; format: cell-based, Enterococcus faecium and Enterococcus faecalis; details: for Resensitization of two vancomycin-resistant E. faecium isolates toward vancomycin / Sensitization of enterococcal isolates to gentamicin: sub-inhibitory concentrations; for Synergy with conventional antibiotics: vancomycin, gentamicin, ciprofloxacin, linezolid, rifampicin or azithromycin, synergy = FICI ≤ 0.5
Method: The strain culture preparation and final volume were the same as in the MIC assay. […] The plates were incubated for 24 h at 37 °C without shaking. […] All experiments were performed in two biological replicates.
To evaluate the effect of the combinations, the fractional inhibitory concentration index (FICI) was calculated for each combination according to:ΣFIC = FICA + FICB = (CA/MICA) + (CB/MICB)
The drug interaction was scored as follows: synergy—FICI ≤ 0.5; no interaction—FICI > 0.5–4; antagonism—FICI > 4 [40].

[2] = tested on: HepG2 cell line ATCC HB-8065; assay: Effect on HepG2 cell viability (MTT assay); format: cell-based, human; details: 48 h
Method: The effect of peptidomimetics on mammalian cell viability was determined on the HepG2 cell line ATCC HB-8065. In brief, HepG2 cells were seeded into flat-bottom 96-well plates at a concentration of 5000 cells per well. The cells were incubated for 24 h in a humidified incubator (5% CO2, 37 °C). Subsequently, the medium was removed, and the cells were incubated for 48 h in a humidified incubator (5% CO2, 37 °C) with peptidomimetics in serial dilutions. An MTT assay was then performed; in brief, after incubation with the test compounds, the culture medium was removed and fresh medium with 0.2 mg/mL MTT was then added into each well. After incubation (3 h, 37 °C, 5% CO2), the medium with MTT was removed, and 200 μL dimethyl sulfoxide was added at once to each sample. The absorbance of MTT was measured using the spectrophotometer TECAN Infinite M1000 at 540 nm. The relative viability was calculated by using the formula:ODtreated cells × 100/ODcontrol cells
The IC50 values were calculated using the program Graph Pad Prism 5.0. For all compounds, the test range was 10–1280 μg/mL.

[3] = tested on: E. faecalis ATCC 29212; assay: Time-kill kinetics; format: cell-based, Enterococcus faecalis; details: for Reduction in viable bacteria (time-kill): 4× MIC (compound 2: 8 µg/mL, 2–4× MIC), 5 h exposure, BHI broth
Method: Time–kill kinetics were established for compounds 2, 5 and 10 in E. faecium ATCC 19434 and E. faecalis ATCC 29212. Prior to the experiments, the isolates were incubated on BHI agar supplemented with 5% calf blood at 37 °C overnight (ON). For each of the strains 1-2 colonies were transferred into 4 mL BHI broth and incubated ON at 37 °C with shaking (180 rpm). OD600 was measured, and then cultures were diluted with BHI broth to an OD600 of 0.05 and grown for approximately 2 h to reach the exponential phase.
One untreated control per strain was prepared. The inoculum was quantified by plating and subsequently enumerated. The initial inocula were approximately 10^7 CFU/mL. Two controls were included, both without bacteria and one including the respective compound without bacteria. All tubes were incubated at 37 °C with shaking (180 rpm). Samples of 100 µL were taken after 1 h, 3 h and 5 h of exposure. Appropriate dilutions were spread onto BHI agar plates and incubated at 37 °C overnight, and then colonies were enumerated. Plates were incubated for 24 h and 48 h, and then checked for the appearance of slow-growing colonies. The experiments were performed with at least three biological replicates for each condition and time point.

[4] = Hemolytic activity; format: cell-based, human; details: human, human red blood cells (washed, 1% suspension), 37 °C, 1% red blood cell suspension
Method: A suspension of hRBCs (Single-donor human red blood cells—washed; catalogue No. IPLA-W3 from Innovative researchTM) was washed three times with PBS buffer and centrifuged for 5 min at 2500 rpm. A two-fold serial dilution of compounds in PBS buffer was prepared. Plates (conical-bottomed 96-well plates) with 3 replicate wells per dilution, containing 1% red blood cell suspension, were prepared and dosed with the test compound to achieve a final concentration of 400 μg/mL in a total volume of 100 μL. The plates were incubated (37 °C) for 60 min with mild agitation, and then the cells were pelleted by centrifugation at 1500 rpm for 5 min. Then, the supernatants (50 μL) were transferred to a fresh 96-well plate, and then the concentration of hemoglobin was detected by measuring the OD at 405 nm. The OD of cells incubated with 1% SDS achieved 100% hemolysis, while the OD of cells incubated with PBS buffer achieved 0% hemolysis. The concentration tested was 400 μg/mL (only average values are stated in Table 3). The percent hemolysis was calculated by using the formula:Hemolysis(%) = 100 × [(Asample − Aneg.control)/(Apos. control − Aneg.control)]

[5] = tested on: E. faecalis (MV269); format: cell-based, Enterococcus faecalis; details: MV269, 24 h
Method: (§1) The minimum bactericidal concentration (MBC) is defined as the lowest concentration of the peptidomimetics that kills 99.9% of the bacterial population. All experiments were performed in three biological replicates.

[6] = tested on: E. faecium 1798; assay: microbe, parasite or virus in culture; format: cell-based, Enterococcus faecium; details: 1798, 24 h
Method: (§2) Overnight cultures of the enterococcal isolates were diluted in physiological saline (0.9% NaCl) to reach a turbidity of 0.5 McFarland units (Sensititre® nephelometer and the Sensititre® McFarland Standard). Bacterial suspensions were adjusted to 5 × 10^5 CFU/mL in MHB II or BHI broth containing two-fold dilutions of peptidomimetics or conventional antibiotics in a final volume of 100 µL. The plates were incubated for 24 h at 37 °C without shaking. […] All experiments were performed in three biological replicates.

[7] = tested on: E. faecium D344R; assay: microbe, parasite or virus in culture; format: cell-based, Enterococcus faecium; details: E. faecium D344R, human clinical isolate; 24 h
Method: as §2

[8] = tested on: E. faecium 2961; assay: microbe, parasite or virus in culture; format: cell-based, Enterococcus faecium; details: 2961, 24 h
Method: as §2

[9] = tested on: E. faecium 3978; assay: microbe, parasite or virus in culture; format: cell-based, Enterococcus faecium; details: 3978, 24 h
Method: as §2

[10] = tested on: E. faecium (MV388); format: cell-based, Enterococcus faecium; details: MV388, 24 h
Method: as §1

[11] = tested on: E. faecium ATCC 19434; assay: microbe, parasite or virus in culture; format: cell-based, Enterococcus faecium; details: ATCC 19434, 24 h
Method: as §2, with “replicates. […]” for “replicates.”

[12] = tested on: E. faecalis ATCC 29212; assay: microbe, parasite or virus in culture; format: cell-based, Enterococcus faecalis; details: ATCC 29212, 24 h
Method: as §2, with “replicates. […]” for “replicates.”

Compound	Resensitization of two vancomycin-resistant E. faecium isolates toward vancomycin [1]	Sensitization of enterococcal isolates to gentamicin [1]	Synergy with conventional antibiotics [1]	HepG2 IC50 [2]	Reduction in viable bacteria (time-kill) [3]	hemolysis at 60 min, 400 µg/mL [4]	Minimum bactericidal concentration [5]	Minimum inhibitory concentration [6]	Minimum inhibitory concentration [7]	Minimum inhibitory concentration [8]	Minimum inhibitory concentration [9]	Minimum bactericidal concentration [10]	Minimum inhibitory concentration [11]	Minimum inhibitory concentration [12]	Reduction in viable cell counts within 1 h ([3]; 4× MIC, within 1 h of exposure)
CCCCCCCC(=O)N[C@@H](CCCCN)C(=O)N(CCC(=O)N[C@@H](CCCCN)C(=O)N(CCC(=O)N[C@@H](CCCCN)C(=O)N(CCC(=O)N[C@@H](CCCCN)C(=O)N(CCC(=O)N[C@@H](CCCCN)C(=O)N(CCC(=O)N[C@@H](CCCCN)C(=O)N(CCC(N)=O)[C@@H](C)c1ccccc1)[C@@H](C)c1ccccc1)[C@@H](C)c1ccccc1)[C@@H](C)c1ccccc1)[C@@H](C)c1ccccc1)[C@@H](C)c1ccccc1 [Compound 10, Oct-[Lys-βNspe]6-NH2]	this was not the case	did not sensitize	no synergy	41 µg/mL	5 log	< 10%	32 µg/mL (≈ 16.3 µM)	2 to 4 µg/mL	4 µg/mL (≈ 2.04 µM)	4 µg/mL (≈ 2.04 µM)	2 to 4 µg/mL	16 µg/mL (≈ 8.15 µM)	8 µg/mL (≈ 4.07 µM)	8 to 16 µg/mL	
CC(=O)N[C@@H](CCCCNC(=N)N)C(=O)N(CCC(=O)N[C@@H](CCCCN)C(=O)N(CCC(=O)N[C@@H](CCCCNC(=N)N)C(=O)N(CCC(=O)N[C@@H](CCCCN)C(=O)N(CCC(=O)N[C@@H](CCCCNC(=N)N)C(=O)N(CCC(=O)N[C@@H](CCCCN)C(=O)N(CCC(N)=O)[C@@H](C)c1ccccc1)[C@@H](C)C1CCCCC1)[C@@H](C)c1ccccc1)[C@@H](C)C1CCCCC1)[C@@H](C)c1ccccc1)[C@@H](C)C1CCCCC1 [Compound 5, Ac-[hArg-βNsce-Lys-βNspe]3-NH2]	this was not the case	did not sensitize	no synergy	73 µg/mL	3 log	< 10%	16 µg/mL (≈ 7.91 µM)	2 µg/mL (≈ 0.988 µM)	2 µg/mL (≈ 0.988 µM)	2 µg/mL (≈ 0.988 µM)	2 µg/mL (≈ 0.988 µM)	128 µg/mL (≈ 63.2 µM)	4 µg/mL (≈ 1.98 µM)	4 to 8 µg/mL	no reduction in viable cell counts
CC(=O)N[C@@H](CCCCNC(=N)N)C(=O)N(CCC(=O)N[C@@H](CCCCNC(=N)N)C(=O)N(CCC(=O)N[C@@H](CCCCNC(=N)N)C(=O)N(CCC(=O)N[C@@H](CCCCNC(=N)N)C(=O)N(CCC(=O)N[C@@H](CCCCNC(=N)N)C(=O)N(CCC(=O)N[C@@H](CCCCNC(=N)N)C(=O)N(CCC(N)=O)[C@@H](C)C1CCCCC1)[C@@H](C)C1CCCCC1)[C@@H](C)C1CCCCC1)[C@@H](C)C1CCCCC1)[C@@H](C)C1CCCCC1)[C@@H](C)C1CCCCC1 [Compound 2, Ac-[hArg-βNsce]6-NH2]	this was not the case	did not sensitize	no synergy	15 µg/mL	approximately 2 log	98.4%	8 µg/mL (≈ 3.69 µM)	2 µg/mL (≈ 0.922 µM)	2 µg/mL (≈ 0.922 µM)	2 µg/mL (≈ 0.922 µM)	2 µg/mL (≈ 0.922 µM)	4 to 8 µg/mL	2 µg/mL (≈ 0.922 µM)	2 to 4 µg/mL	
